Structures can show the parent of a compound that is named as a salt.
Key:
[1] = target: Tyk2 kinase activity on STAT4 in NK92 cells (Homo sapiens, UniProt P29597); assay: pSTAT4 cell assay (MSD; NK92 cells, 30 ng/mL IL2 stimulation); format: cell-based; conditions: 30 ng/mL IL2, 15 minutes
Outline: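 IC50 values come from 4-parameter logistic fits of normalized percent activity. Phospho-STAT was read by MSD (anti-STAT4 antibodies) in NK92 lysates after a 15 min stimulation with 30 ng/mL IL2. The serum-starved cells had been given compound for 1 h (10 points, four-fold, top 10 μM).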

[2] = target: T1, human JAK3 kinase domain (JH1) (Homo sapiens, UniProt P52333); assay: JH1 biochemical assay for JAK3 (ADP-Glo kinase assay, recombinant JH1 catalytic domain, JAK3-974 peptide, 4 μM ATP)
T1 construct: recombinantly generated catalytic kinase (also known as JH1) domain of human JAK1, JAK2, JAK3 and TYK2
T1 sequence (P52333 822-1111 limits assumed): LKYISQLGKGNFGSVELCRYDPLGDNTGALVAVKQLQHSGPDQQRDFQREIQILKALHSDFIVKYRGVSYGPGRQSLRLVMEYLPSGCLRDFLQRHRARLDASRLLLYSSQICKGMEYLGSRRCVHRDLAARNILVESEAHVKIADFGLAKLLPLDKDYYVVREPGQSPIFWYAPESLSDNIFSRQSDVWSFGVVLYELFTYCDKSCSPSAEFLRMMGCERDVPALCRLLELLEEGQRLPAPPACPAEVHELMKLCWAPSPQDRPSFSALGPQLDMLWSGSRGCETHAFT
Outline: (§1)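 Kinase 4 nM JAK1 / 0.2 nM JAK2 / 0.3 nM JAK3 / 2 nM TYK2; 50 μM peptide; 100 min. Unused ATP depleted, ADP→ATP, luciferase luminescence. 11-pt 3-fold series from 10 or 1 μM; normalized, 4PL fit → IC50.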

[3] = target: T2, human TYK2 kinase domain (JH1) (Homo sapiens, UniProt P29597); assay: JH1 biochemical assay for TYK2 (ADP-Glo kinase assay, recombinant JH1 catalytic domain, JAK3-974 peptide, 10 μM ATP)
T2 construct: recombinantly generated catalytic kinase (also known as JH1) domain of human JAK1, JAK2, JAK3 and TYK2
T2 sequence (P29597 897-1176 limits assumed): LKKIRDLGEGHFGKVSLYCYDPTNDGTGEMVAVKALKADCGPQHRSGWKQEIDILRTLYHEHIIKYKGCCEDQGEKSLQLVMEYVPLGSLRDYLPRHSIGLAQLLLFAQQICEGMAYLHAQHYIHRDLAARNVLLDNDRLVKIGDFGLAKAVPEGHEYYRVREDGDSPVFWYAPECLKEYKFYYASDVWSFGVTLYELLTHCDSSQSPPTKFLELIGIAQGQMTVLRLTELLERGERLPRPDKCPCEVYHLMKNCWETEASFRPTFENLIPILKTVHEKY
Outline: as §1

[4] = target: JAK1 kinase activity on STAT3 in TF1 cells (Homo sapiens, UniProt P23458); assay: pSTAT3 cell assay (MSD; TF1 cells, 30 ng/mL IL-6 stimulation); format: cell-based; conditions: 30 ng/mL IL-6, 15 minutes
JAK1 kinase activity on STAT3 in TF1 cells, sequence (P23458 whole entry): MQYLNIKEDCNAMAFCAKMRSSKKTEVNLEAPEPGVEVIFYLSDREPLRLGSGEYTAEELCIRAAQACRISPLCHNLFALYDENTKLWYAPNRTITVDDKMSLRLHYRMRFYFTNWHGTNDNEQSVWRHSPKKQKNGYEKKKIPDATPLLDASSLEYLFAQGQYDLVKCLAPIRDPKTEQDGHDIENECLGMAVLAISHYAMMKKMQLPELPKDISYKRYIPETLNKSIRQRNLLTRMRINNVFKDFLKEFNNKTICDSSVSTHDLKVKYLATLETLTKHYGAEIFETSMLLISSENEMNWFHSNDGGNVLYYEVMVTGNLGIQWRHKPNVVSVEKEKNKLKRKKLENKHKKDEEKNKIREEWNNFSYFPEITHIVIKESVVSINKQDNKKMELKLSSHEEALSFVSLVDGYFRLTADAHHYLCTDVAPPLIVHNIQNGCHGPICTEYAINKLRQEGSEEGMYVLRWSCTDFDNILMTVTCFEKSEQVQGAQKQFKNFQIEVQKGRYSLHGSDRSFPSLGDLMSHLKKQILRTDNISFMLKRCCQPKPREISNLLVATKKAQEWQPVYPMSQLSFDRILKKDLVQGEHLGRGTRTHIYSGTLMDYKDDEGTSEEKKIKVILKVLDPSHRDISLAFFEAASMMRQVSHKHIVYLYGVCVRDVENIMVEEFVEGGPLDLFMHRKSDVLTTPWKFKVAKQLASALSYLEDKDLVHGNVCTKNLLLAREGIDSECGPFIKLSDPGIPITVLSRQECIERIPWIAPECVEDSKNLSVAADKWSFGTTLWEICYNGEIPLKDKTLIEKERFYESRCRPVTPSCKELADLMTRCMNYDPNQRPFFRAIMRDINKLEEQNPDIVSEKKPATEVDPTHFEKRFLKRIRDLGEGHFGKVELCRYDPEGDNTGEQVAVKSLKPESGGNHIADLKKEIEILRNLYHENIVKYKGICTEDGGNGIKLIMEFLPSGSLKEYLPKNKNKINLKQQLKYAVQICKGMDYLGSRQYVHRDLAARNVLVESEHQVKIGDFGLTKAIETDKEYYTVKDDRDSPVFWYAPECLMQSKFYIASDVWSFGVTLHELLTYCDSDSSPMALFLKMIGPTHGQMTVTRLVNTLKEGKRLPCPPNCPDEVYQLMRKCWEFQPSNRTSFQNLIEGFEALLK
Outline: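 Serum starvation, 1 h compound (10 pt, 4-fold from 10 μM), IL-6 15 min, lysis. pSTAT3 read by MSD immunoassay, anti-STAT3 Abs. Normalized % activity vs log[cpd], 4-PL fit → IC50.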

[5] = target: T3, human JAK1 kinase domain (JH1) (Homo sapiens, UniProt P23458); assay: JH1 biochemical assay for JAK1 (ADP-Glo kinase assay, recombinant JH1 catalytic domain, JAK3-342 peptide, 35 μM ATP)
T3 construct: recombinantly generated catalytic kinase (also known as JH1) domain of human JAK1, JAK2, JAK3 and TYK2
T3 sequence (P23458 875-1153 limits assumed): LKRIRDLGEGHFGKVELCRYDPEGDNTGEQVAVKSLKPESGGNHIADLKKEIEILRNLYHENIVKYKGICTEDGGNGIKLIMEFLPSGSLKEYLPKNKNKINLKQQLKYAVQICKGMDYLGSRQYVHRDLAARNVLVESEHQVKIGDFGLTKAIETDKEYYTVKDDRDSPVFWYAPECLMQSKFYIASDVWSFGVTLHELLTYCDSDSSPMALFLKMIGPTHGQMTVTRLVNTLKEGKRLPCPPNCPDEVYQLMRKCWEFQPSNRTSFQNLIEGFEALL
Outline: as §1

[6] = target: T4, human JAK2 kinase domain (JH1) (Homo sapiens, UniProt O60674); assay: JH1 biochemical assay for JAK2 (ADP-Glo kinase assay, recombinant JH1 catalytic domain, JAK3-974 peptide, 15 μM ATP)
T4 construct: recombinantly generated catalytic kinase (also known as JH1) domain of human JAK1, JAK2, JAK3 and TYK2
T4 sequence (O60674 849-1124 limits assumed): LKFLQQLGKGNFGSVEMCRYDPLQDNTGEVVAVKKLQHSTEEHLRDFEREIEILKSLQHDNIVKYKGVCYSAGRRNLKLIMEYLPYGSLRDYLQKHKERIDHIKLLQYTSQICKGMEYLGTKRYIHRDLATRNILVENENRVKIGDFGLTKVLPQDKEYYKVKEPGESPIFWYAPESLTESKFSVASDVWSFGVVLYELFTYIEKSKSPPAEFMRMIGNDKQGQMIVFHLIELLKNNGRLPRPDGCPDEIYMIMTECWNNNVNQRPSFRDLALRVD
Outline: as §1

[7] = target: JAK2 kinase activity on STAT5 in TF1 cells (Homo sapiens, UniProt O60674); assay: pSTAT5 cell assay (MSD; TF1 cells, 30 ng/mL IL-3 stimulation); format: cell-based; conditions: 30 ng/mL IL-3, 15 minutes
JAK2 kinase activity on STAT5 in TF1 cells, sequence (O60674 whole entry): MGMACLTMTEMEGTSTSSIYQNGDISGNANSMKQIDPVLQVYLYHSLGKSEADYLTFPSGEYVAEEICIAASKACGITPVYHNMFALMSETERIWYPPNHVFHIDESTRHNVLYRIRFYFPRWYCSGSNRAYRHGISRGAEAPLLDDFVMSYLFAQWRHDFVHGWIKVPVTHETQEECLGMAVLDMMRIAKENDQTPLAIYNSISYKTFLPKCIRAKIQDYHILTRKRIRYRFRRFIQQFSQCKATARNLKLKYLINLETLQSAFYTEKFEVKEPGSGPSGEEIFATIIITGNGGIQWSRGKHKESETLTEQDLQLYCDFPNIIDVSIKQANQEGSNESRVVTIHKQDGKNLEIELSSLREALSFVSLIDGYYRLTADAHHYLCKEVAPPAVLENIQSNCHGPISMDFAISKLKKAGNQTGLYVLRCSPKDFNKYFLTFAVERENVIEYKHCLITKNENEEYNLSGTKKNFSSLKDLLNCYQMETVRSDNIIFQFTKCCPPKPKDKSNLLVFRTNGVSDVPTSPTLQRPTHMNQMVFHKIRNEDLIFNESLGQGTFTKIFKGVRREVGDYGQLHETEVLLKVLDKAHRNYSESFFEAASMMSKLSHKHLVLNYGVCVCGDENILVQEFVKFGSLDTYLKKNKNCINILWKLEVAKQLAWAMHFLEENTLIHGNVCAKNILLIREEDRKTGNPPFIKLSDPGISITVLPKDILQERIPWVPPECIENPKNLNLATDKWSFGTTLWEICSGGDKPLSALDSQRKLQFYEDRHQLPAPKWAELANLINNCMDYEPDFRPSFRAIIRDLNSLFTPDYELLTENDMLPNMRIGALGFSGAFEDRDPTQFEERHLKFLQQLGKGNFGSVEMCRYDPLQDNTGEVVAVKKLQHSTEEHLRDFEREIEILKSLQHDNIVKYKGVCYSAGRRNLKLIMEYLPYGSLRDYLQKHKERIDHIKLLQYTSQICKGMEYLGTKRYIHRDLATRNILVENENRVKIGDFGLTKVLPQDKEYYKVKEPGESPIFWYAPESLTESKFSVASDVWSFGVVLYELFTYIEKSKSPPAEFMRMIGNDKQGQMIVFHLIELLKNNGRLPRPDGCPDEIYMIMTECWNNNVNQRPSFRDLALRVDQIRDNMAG
Outline: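 IC50 from a 4-parameter logistic fit of normalized pSTAT5 signal, measured by MSD in lysates of TF1 cells. Cells were serum-starved, exposed to compound for 1 h (top concentration 10 μM, four-fold, 10 points), then given IL-3 at 30 ng/mL for 15 min.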

Tyk2 kinase activity on STAT4 in NK92 cells, sequence (P29597 whole entry): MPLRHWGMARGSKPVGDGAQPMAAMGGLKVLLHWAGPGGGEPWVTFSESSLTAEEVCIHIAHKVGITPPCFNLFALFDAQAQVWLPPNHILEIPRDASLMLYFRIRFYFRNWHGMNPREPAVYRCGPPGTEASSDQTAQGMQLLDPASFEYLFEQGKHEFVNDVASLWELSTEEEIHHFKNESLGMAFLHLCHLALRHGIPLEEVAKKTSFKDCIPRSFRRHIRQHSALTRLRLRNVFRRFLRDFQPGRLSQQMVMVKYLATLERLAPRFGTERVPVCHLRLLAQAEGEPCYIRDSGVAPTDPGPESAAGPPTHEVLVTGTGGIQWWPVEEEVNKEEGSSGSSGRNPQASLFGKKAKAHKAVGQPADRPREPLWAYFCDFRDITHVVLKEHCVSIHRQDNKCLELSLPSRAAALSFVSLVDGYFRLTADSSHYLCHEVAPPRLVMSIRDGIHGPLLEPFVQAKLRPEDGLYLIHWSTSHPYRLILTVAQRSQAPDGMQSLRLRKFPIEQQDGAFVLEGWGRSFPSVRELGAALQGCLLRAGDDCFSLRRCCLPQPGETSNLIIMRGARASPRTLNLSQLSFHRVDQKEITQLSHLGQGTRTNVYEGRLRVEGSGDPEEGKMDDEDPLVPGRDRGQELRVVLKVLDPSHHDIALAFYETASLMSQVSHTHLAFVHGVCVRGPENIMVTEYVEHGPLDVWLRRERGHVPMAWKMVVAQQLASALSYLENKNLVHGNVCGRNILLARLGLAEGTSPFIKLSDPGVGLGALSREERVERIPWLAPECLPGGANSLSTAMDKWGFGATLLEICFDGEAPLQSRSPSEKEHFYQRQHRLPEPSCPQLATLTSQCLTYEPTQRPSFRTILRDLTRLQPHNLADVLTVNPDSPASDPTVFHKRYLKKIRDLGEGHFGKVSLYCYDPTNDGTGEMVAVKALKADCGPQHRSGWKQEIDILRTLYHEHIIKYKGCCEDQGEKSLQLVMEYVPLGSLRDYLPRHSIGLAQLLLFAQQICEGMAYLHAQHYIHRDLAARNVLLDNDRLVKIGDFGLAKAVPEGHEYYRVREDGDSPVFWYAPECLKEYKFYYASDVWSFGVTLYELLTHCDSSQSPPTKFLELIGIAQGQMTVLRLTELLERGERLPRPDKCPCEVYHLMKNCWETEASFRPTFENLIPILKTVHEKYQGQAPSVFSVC

| SMILES | IC50 [1] [nM] | IC50 ([2]; JH1 kinase domain, ADP-Glo) [nM] | IC50 ([3]; JH1 kinase domain, ADP-Glo) [nM] | IC50 [4] [nM] | IC50 ([5]; JH1 kinase domain, ADP-Glo) [nM] | IC50 ([6]; JH1 kinase domain, ADP-Glo) [nM] | IC50 [7] [µM] | IC50 ([2]; JAK3 JH1, ADP-Glo) [nM] | IC50 ([3]; TYK2 JH1, ADP-Glo) [nM] | IC50 ([5]; JAK1 JH1, ADP-Glo) [nM] | IC50 ([6]; JAK2 JH1, ADP-Glo) [nM] |
| --- | --- | --- | --- | --- | --- | --- | --- | --- | --- | --- | --- |
| Cn1cc(-c2cc3c(N4CC[C@@](C#N)(C5CC5)C4=O)ccnc3[nH]2)cn1 [Example 4, (S)-3-cyclopropyl-1-(2-(1-methyl-1H-pyrazol-4-yl)-1H-pyrrolo[2,3-b]pyridin-4-yl)-2-oxopyrrolidine-3-carbonitrile] | 20 to 50 | < 100 | < 5 | 100 to 1000 | < 100 | < 100 | 0.1 to 1 |  |  |  |  |
| Cc1nc(-c2cn3nccc3c(N3C[C@@H](C)[C@@](C#N)(C4CC4)C3=O)n2)cs1 [Example 214, (3R,4S)-3-cyclopropyl-4-methyl-1-(6-(2-methylthiazol-4-yl)pyrazolo[1,5-a]pyrazin-4-yl)-2-oxopyrrolidine-3-carbonitrile] | > 100 | 100 to 1000 | 5 to 20 | 1000 to 5000 | 100 to 1000 | 100 to 1000 | 5 to 10 |  |  |  |  |
| C[C@@H]1CN(c2nc(-c3cnn(CC4(C#N)CC4)c3)cn3ncc(F)c23)C(=O)[C@]1(C#N)C1CC1 [Example 302, (3R,4S)-1-(6-(1-((1-cyanocyclopropyl)methyl)-1H-pyrazol-4-yl)-3-fluoropyrazolo[1,5-a]pyrazin-4-yl)-3-cyclopropyl-4-methyl-2-oxopyrrolidine-3-carbonitrile] | 50 to 100 |  |  | 100 to 1000 |  |  | 1 to 5 | < 100 | < 5 | < 100 | < 100 |
| C[C@@H]1CN(c2nc(-c3cnn(C4(C)COC4)c3)cn3ncc(F)c23)C(=O)[C@]1(C#N)C1CC1 [Example 300, (3R,4S)-3-cyclopropyl-1-(3-fluoro-6-(1-(3-methyloxetan-3-yl)-1H-pyrazol-4-yl)pyrazolo[1,5-a]pyrazin-4-yl)-4-methyl-2-oxopyrrolidine-3-carbonitrile] | > 100 |  |  | 100 to 1000 |  |  | 1 to 5 | < 100 | < 5 | < 100 | 100 to 1000 |
| C[C@@H]1CN(c2nc(-c3ccn(C)c(=O)c3)cn3nccc23)C(=O)[C@]1(C#N)C1CC1 [Example 261, (3R,4S)-3-cyclopropyl-4-methyl-1-(6-(1-methyl-2-oxo-1,2-dihydropyridin-4-yl)pyrazolo[1,5-a]pyrazin-4-yl)-2-oxopyrrolidine-3-carbonitrile trifluoroacetate] | > 100 |  |  | 1000 to 5000 |  |  | 1 to 5 | < 100 | < 5 | 100 to 1000 | 100 to 1000 |
| CCn1cc(-c2cn3ncc(F)c3c(N3C[C@@H](C)[C@@](C#N)(C4CC4)C3=O)n2)cn1 [Example 188, (3R,4S)-3-cyclopropyl-1-(6-(1-ethyl-1H-pyrazol-4-yl)-3-fluoropyrazolo[1,5-a]pyrazin-4-yl)-4-methyl-2-oxopyrrolidine-3-carbonitrile] | 20 to 50 | < 100 | < 5 | 100 to 1000 | < 100 | < 100 | 1 to 5 |  |  |  |  |
| Cc1ccn(-c2cc3c(N4C[C@@H](C)[C@@](C#N)(C5CC5)C4=O)ccnn3c2)n1 [Example 334, (3R,4S)-3-cyclopropyl-4-methyl-1-(6-(3-methyl-1H-pyrazol-1-yl)pyrrolo[1,2-b]pyridazin-4-yl)-2-oxopyrrolidine-3-carbonitrile] | > 100 |  |  | > 10000 |  |  | > 10 | 100 to 1000 | 20 to 50 | 1000 to 5000 | 1000 to 5000 |
| C[C@@H]1CN(c2ccnn3cc(-c4cccc5cncn45)cc23)C(=O)[C@]1(C#N)C1CC1 [Example 128, (3R,4S)-3-cyclopropyl-1-(6-(imidazo[1,5-a]pyridin-5-yl)pyrrolo[1,2-b]pyridazin-4-yl)-4-methyl-2-oxopyrrolidine-3-carbonitrile trifluoroacetate] | > 100 | 100 to 1000 | 5 to 20 | > 10000 | 100 to 1000 | 1000 to 5000 | > 10 |  |  |  |  |
| C[C@@H]1CN(c2ccnn3cc(-c4ccc(=O)n(C)c4)cc23)C(=O)[C@]1(C#N)C1CC1 [Example 83, (3R,4S)-3-cyclopropyl-4-methyl-1-(6-(1-methyl-6-oxo-1,6-dihydropyridin-3-yl)pyrrolo[1,2-b]pyridazin-4-yl)-2-oxopyrrolidine-3-carbonitrile] | 50 to 100 | 100 to 1000 | < 5 | 1000 to 5000 | < 100 | 100 to 1000 | 5 to 10 |  |  |  |  |
| COc1ncccc1-c1cc2c(N3C[C@@H](C)[C@@](C#N)(C4CC4)C3=O)ccnn2c1 [Example 96, (3R,4S)-3-cyclopropyl-1-(6-(2-methoxypyridin-3-yl)pyrrolo[1,2-b]pyridazin-4-yl)-4-methyl-2-oxopyrrolidine-3-carbonitrile] | > 100 | 1000 to 5000 | 5 to 20 | > 10000 | 1000 to 5000 | 1000 to 5000 | > 10 |  |  |  |  |
| C[C@@H]1CN(c2cc(-c3cnn(C(F)F)c3)cc3ncsc23)C(=O)[C@]1(C#N)C1CC1 [Example 349, (3R,4S)-3-cyclopropyl-1-(5-(1-(difluoromethyl)-1H-pyrazol-4-yl)benzo[d]thiazol-7-yl)-4-methyl-2-oxopyrrolidine-3-carbonitrile] | > 100 |  |  | 100 to 1000 |  |  | 1 to 5 | < 100 | < 5 | < 100 | 100 to 1000 |
| CC[C@@H]1CN(c2ccnn3cc(-c4cnn(C)c4)cc23)C(=O)[C@]1(C#N)C1CC1 [Example 23, (3R,4S)-3-cyclopropyl-4-ethyl-1-(6-(1-methyl-1H-pyrazol-4-yl)pyrrolo[1,2-b]pyridazin-4-yl)-2-oxopyrrolidine-3-carbonitrile] | 50 to 100 | 100 to 1000 | 5 to 20 | 1000 to 5000 | 100 to 1000 | 100 to 1000 | 5 to 10 |  |  |  |  |
| C[C@@H]1CN(c2nc(-c3cnn(CC(F)F)c3)cc3ncsc23)C(=O)[C@]1(C#N)C1CC1 [Example 354, (3R,4S)-3-cyclopropyl-1-(6-(1-(2,2-difluoroethyl)-1H-pyrazol-4-yl)thiazolo[5,4-c]pyridin-4-yl)-4-methyl-2-oxopyrrolidine-3-carbonitrile] | 20 to 50 |  |  | < 100 |  |  | < 0.1 | < 100 | < 5 | < 100 | < 100 |
